From PMC11027885, “Utilizing surface plasmon resonance as a novel method for monitoring in-vitro P-glycoprotein efflux” (Frontiers in biophysics, 2024)
Structures can show the parent of a compound that is named as a salt. Where two headings read alike, the source gives them in different places.

Experiments:
mouse Pgp (Abcb1a, MDR3) = mouse Pgp (Abcb1a, MDR3) (Mus musculus, UniProt P21447); test: ATPase assay (Chifflet method), Pgp reconstituted in liposomes
Pgp (Abcb1a, MDR3) = Pgp (Abcb1a, MDR3) (Mus musculus, UniProt P21447); test: in vitro; settings: pH 7.4
Pgp = system: Pgp; design: method as in Doan et al. (2002); settings: drug accumulation assay, MDR1-MDCKII cells; ref Doan et al. (2002); cited from earlier work

Sequence of mouse Pgp (Abcb1a, MDR3) (P21447 whole entry): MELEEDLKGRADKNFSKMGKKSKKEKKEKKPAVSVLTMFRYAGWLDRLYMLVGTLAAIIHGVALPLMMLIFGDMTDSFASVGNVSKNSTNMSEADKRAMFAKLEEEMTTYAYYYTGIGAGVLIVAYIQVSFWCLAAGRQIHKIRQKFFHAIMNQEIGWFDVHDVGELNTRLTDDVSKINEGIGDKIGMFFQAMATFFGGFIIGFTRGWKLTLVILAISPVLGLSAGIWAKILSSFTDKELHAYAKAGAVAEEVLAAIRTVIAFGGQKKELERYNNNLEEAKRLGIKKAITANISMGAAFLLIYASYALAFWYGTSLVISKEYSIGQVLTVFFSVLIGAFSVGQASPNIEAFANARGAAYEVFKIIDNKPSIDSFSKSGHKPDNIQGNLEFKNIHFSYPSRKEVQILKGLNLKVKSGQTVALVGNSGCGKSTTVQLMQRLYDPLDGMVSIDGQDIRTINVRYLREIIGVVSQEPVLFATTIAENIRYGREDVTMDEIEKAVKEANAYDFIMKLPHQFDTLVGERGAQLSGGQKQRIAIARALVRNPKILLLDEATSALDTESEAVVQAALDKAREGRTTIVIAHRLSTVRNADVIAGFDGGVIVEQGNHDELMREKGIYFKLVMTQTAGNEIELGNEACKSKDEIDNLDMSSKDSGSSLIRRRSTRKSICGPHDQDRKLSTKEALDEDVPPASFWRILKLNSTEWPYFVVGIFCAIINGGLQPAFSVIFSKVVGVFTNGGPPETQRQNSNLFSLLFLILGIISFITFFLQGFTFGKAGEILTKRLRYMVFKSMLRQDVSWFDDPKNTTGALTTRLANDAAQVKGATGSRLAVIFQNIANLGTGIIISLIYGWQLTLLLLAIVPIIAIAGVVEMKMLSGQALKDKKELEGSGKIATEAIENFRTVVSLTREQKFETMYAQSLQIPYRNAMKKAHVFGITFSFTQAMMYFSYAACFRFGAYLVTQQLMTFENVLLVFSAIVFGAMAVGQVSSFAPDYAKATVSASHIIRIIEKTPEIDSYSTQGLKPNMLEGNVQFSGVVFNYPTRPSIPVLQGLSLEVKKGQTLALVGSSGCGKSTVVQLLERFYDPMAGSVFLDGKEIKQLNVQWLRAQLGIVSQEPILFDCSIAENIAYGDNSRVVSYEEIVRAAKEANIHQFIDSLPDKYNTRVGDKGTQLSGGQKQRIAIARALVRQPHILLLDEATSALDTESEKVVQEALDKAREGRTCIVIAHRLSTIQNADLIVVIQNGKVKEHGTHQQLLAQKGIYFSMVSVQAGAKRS
Sequence of Pgp (Abcb1a, MDR3) (P21447 whole entry): as above

CNCCCN1c2ccccc2CCc2ccccc21 [Desipramine, desipramine hydrochloride]
vmax of Pgp ATP hydrolysis (mouse Pgp (Abcb1a, MDR3); 50 nM Pgp in liposomes, curve fit (Eq. 2 monophasic, Eq. 3 biphasic)): 904 ± 65 nmolmin^−1mg^−1
ATP hydrolysis activation profile (mouse Pgp (Abcb1a, MDR3); shape of ATPase kinetics curve): monophasic
koff (Pgp (Abcb1a, MDR3)): 129 s⁻¹
Pgp efflux ratio (literature) (Pgp): 2

CCC(=O)C(CC(C)N(C)C)(c1ccccc1)c1ccccc1 (stereo not drawn) [Methadone, methadone hydrochloride]
peak ATP hydrolysis rate (mouse Pgp (Abcb1a, MDR3)): approximately 800 nmolmin^−1mg^−1
vmax of Pgp ATP hydrolysis (mouse Pgp (Abcb1a, MDR3)): 849 ± 45 nmolmin^−1mg^−1

C=C[C@H]1C[N@@]2CC[C@H]1C[C@@H]2[C@@H](O)c1ccnc2ccc(OC)cc12 [Quinidine]
Ki (mouse Pgp (Abcb1a, MDR3)): 131 ± 34 µM
peak ATP hydrolysis rate (mouse Pgp (Abcb1a, MDR3)): approximately 900 nmolmin^−1mg^−1

[Na+].[Na+].[Na+].[O]=[V]([O-])([O-])[O-] [sodium orthovanadate, Sodium orthovanadate]
Pgp ATPase activity in presence of inhibitor (mouse Pgp (Abcb1a, MDR3); decline from basal 482 ± 50): approximately 100 nmolmin^−1mg^−1
